We go through 7 compounds from PubChem BioAssay (NCI).

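Method: 48-hour compound exposure of cells in 96-well plates, five concentrations, linear interpolation of endpoints. Here, GI50 denotes the concentration required for 50% inhibition of growth. TGI: total growth inhibition.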

Some test systems named below: COLO 205 colon; HCT-116 colon; HCT-15 colon; HOP-62 NSCLC; HT29 colon; IGROV1 ovarian; K-562 leukemia; MOLT-4 leukemia; OVCAR-3 ovarian; OVCAR-5 ovarian; SF-268 CNS; SF-539 CNS; SK-MEL-28 melanoma; SK-OV-3 ovarian; SNB-19 CNS; SNB-75 CNS; U251 CNS; UACC-257 melanoma; UO-31 renal.
Test in all cases: DTP human tumour cell line panel, 48 h

As to `O=C(N/N=C/c1cc(Br)cc(Br)c1[O-])c1ccccc1O.O=C(N/N=C/c1cc(Br)cc(Br)c1[O-])c1ccccc1O.[Co+2]`, the TGI with COLO 205 colon is 20.4 µM; in the assay on HCT-116 colon, 17.7 µM; in the assay on HCT-15 colon, 14.4 µM; in the assay with HOP-62 NSCLC it was 10.3 µM; in the assay with HT29 colon, 17.7 µM; with IGROV1 ovarian, 8.44 µM. The TGI in the assay on K-562 leukemia was determined as 16.2 µM; in the assay on MOLT-4 leukemia, 14.3 µM; with OVCAR-3 ovarian it was 3.6 µM; with OVCAR-5 ovarian it was 11.1 µM; with SF-268 CNS it was 13.9 µM; in the assay with SF-539 CNS it was 4.66 µM. For the same compound, the TGI came out at 14.5 µM with SK-MEL-28 melanoma; 5.57 µM in the assay with SK-OV-3 ovarian; 28.4 µM with SNB-19 CNS; 15.3 µM with SNB-75 CNS; 9.38 µM with U251 CNS; 17.6 µM in the assay on UACC-257 melanoma. Besides, the TGI in the assay with UO-31 renal was 10.6 µM. Also, in the assay with K-562 leukemia, the GI50 is 0.643 µM.

With `O=c1oc2cc(O)ccc2c(O)c1Cc1c(O)c2ccc(O)cc2oc1=O`, the TGI in the assay with COLO 205 colon, with HCT-116 colon, in the assay on HCT-15 colon, in the assay on HOP-62 NSCLC, in the assay on HT29 colon and in the assay with IGROV1 ovarian was more than 100 µM throughout. Moreover, the TGI in the assay on K-562 leukemia, with MOLT-4 leukemia, in the assay with OVCAR-3 ovarian, with OVCAR-5 ovarian, with SF-268 CNS and in the assay on SF-539 CNS was more than 100 µM in each case. Moreover, the TGI in the assay with SK-MEL-28 melanoma, with SK-OV-3 ovarian, with SNB-19 CNS, with SNB-75 CNS, in the assay on U251 CNS and with UACC-257 melanoma was more than 100 µM in each case. The compound also yielded a TGI in the assay with UO-31 renal of more than 100 µM.

Consider `CN(Cc1cnc2c(N)nc(N)nc2n1)c1ccc(Cl)cc1`, for which the TGI with COLO 205 colon, in the assay on HCT-15 colon, in the assay on HOP-62 NSCLC, with IGROV1 ovarian, with K-562 leukemia and with MOLT-4 leukemia was more than 100 µM each time. For the same compound, the TGI with OVCAR-3 ovarian was more than 100 µM; in the assay with OVCAR-5 ovarian it was more than 100 µM; in the assay on SF-268 CNS it was more than 100 µM; in the assay on SF-539 CNS, 70.9 µM; with SK-OV-3 ovarian, more than 100 µM; in the assay on SNB-19 CNS, more than 100 µM. Besides, the TGI in the assay with SNB-75 CNS is 29.6 µM; in the assay with U251 CNS, more than 100 µM; in the assay on UACC-257 melanoma, more than 100 µM; with UO-31 renal, more than 100 µM.

As to `C[C@@H]1CC[C@@]2(OC1)O[C@H]1C[C@H]3[C@@H]4CC[C@H]5C[C@@H](OC6OC(CO)C(OC7OC(CO)C(O)C(OC8OCC(O)C(O)C8O)C7OC7OC(CO)C(O)C(O)C7O)C(O)C6O)[C@H](O)C[C@]5(C)[C@H]4CC[C@]3(C)[C@H]1[C@@H]2C` (stereo partly drawn), the TGI in the assay with COLO 205 colon is 22 µM; in the assay on HCT-116 colon, 17.8 µM; in the assay on HCT-15 colon, more than 33.9 µM; in the assay on HOP-62 NSCLC, 2.94 µM; in the assay on HT29 colon, 13.3 µM; in the assay with IGROV1 ovarian, 8.31 µM. Also, the TGI with K-562 leukemia was more than 100 µM; with MOLT-4 leukemia, 31.1 µM; in the assay with OVCAR-3 ovarian, 9.56 µM; with OVCAR-5 ovarian it was 18.9 µM; in the assay with SF-268 CNS it was 23.7 µM; in the assay with SF-539 CNS, 12.8 µM. Further, the TGI with SK-MEL-28 melanoma came to 31 µM; in the assay with SK-OV-3 ovarian, 29.8 µM; in the assay on SNB-19 CNS it was 27.1 µM; with SNB-75 CNS, 27.9 µM; with U251 CNS, 12.4 µM; with UACC-257 melanoma it was 39.9 µM. In addition, in the assay with UO-31 renal, the TGI worked out at 17.8 µM.

On to `CCn1cnnc1-c1nsc2ccccc12`, for which the TGI in the assay with COLO 205 colon, in the assay with HCT-116 colon, in the assay on HCT-15 colon, in the assay on HOP-62 NSCLC, in the assay on HT29 colon and in the assay with IGROV1 ovarian was more than 100 µM each time. Also, the TGI with K-562 leukemia is more than 100 µM; with OVCAR-3 ovarian, more than 100 µM; in the assay on OVCAR-5 ovarian, 92.2 µM; in the assay on SF-268 CNS, more than 100 µM; in the assay with SF-539 CNS, more than 100 µM; with SK-MEL-28 melanoma, more than 100 µM. For the same compound, the TGI with SNB-19 CNS is more than 100 µM; in the assay with SNB-75 CNS, 41.8 µM; in the assay on U251 CNS, more than 100 µM; in the assay on UACC-257 melanoma, more than 100 µM; in the assay with UO-31 renal, more than 100 µM.

For the compound `O=c1cc(-c2ccccc2)[nH]c2nccn12`, the TGI with COLO 205 colon, in the assay on HCT-116 colon, in the assay with HCT-15 colon, in the assay on HOP-62 NSCLC, with HT29 colon and in the assay with IGROV1 ovarian was more than 10 µM each time. Besides, the TGI with K-562 leukemia, in the assay with MOLT-4 leukemia, with OVCAR-3 ovarian, with OVCAR-5 ovarian, in the assay on SF-268 CNS and with SF-539 CNS was more than 10 µM in each case. Further, the TGI in the assay with SK-MEL-28 melanoma, with SK-OV-3 ovarian, in the assay on SNB-19 CNS, with SNB-75 CNS, in the assay with U251 CNS and in the assay with UO-31 renal was more than 10 µM each time.

`CC1=CC2c3cccc4[nH]cc(c34)CC2N(C)C1` (stereo not drawn): the TGI in the assay on COLO 205 colon was more than 100 µM; in the assay on HCT-116 colon, more than 100 µM; in the assay with HCT-15 colon it was more than 100 µM; with HOP-62 NSCLC it was 30.8 µM; with HT29 colon, more than 100 µM; with IGROV1 ovarian, more than 100 µM. The TGI in the assay on K-562 leukemia, in the assay on MOLT-4 leukemia, in the assay with OVCAR-3 ovarian, with OVCAR-5 ovarian, with SF-268 CNS and in the assay with SF-539 CNS was more than 100 µM throughout. Further, the TGI with SK-MEL-28 melanoma was more than 100 µM; in the assay with SK-OV-3 ovarian it was more than 100 µM; with SNB-19 CNS it was more than 100 µM; in the assay with SNB-75 CNS, more than 82.4 µM; in the assay on U251 CNS it was more than 100 µM; in the assay with UACC-257 melanoma, more than 100 µM. Moreover, the TGI with UO-31 renal is more than 76.9 µM.

By TGI is commonly meant the concentration giving total growth inhibition. A low value points to more potent growth arrest. As usually defined, the GI50 is the concentration at which growth is held to half of that of the control.
